Read-outs that look alike come from different tables or passages of the source.

Experiment [1] concerns effects of serotonin. The settings on record: rats, compound 48/80; known serotonin-antagonists; cited from earlier work.
The test system of experiment [2] is effects of serotonin. In words: Antagonistic activity on the effects of serotonin in the gastric lesion test (lesions induced by compound 48/80). It counts as in vivo, rats of a Wistar inbred strain. The settings on record: Rattus norvegicus, po, read-out: gastric lesion test ED50. In a few lines:
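Fasted male Wistar rats (220–250 g) dosed orally with compound; 1 h later 2.5 mg/kg s.c. H1 antagonist, then compound 48/80 i.v. Stomachs examined 4 h afterwards for distension and glandular lesions (scored 0 to +++); ED50 is the oral dose (mg/kg) abolishing both in 50% of rats.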

The subject of experiment [3] is compound 48/80-induced lethality. In words: Protection of rats from compound 48/80-induced lethality. It counts as in vivo, rats of an inbred Wistar strain. The settings on record: Rattus norvegicus, 4 h, read-out: Compound 48/80 lethality test in rats ED50, s.c. or p.o. 1 h before compound 48/80 0.5 mg/kg i.v.; protection of 50% of animals, survival after 4 hours. In a few lines:
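Male inbred Wistar rats (240-260 g), starved overnight, dosed subcutaneously or orally with compound or 0.9% NaCl before compound 48/80 challenge. Survival at 4 hours counted as protection. ED50 in mg/kg is the dose protecting 50% of animals from lethality.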

Where [4] appears, read: compound 48/80 1 mg/kg i.v., distension and lesions of stomach completely absent in 50% of rats.

As to `O=C(CCCN1CCC2(CC1)C(=O)NCN2c1ccccc1)c1ccc(F)cc1` [spiperone], the “prevention of cyanosis of ears and extremities, lesions in the glandular area of the stomach and abnormal gastric distension” value (“prevention” for short) in the experiment on effects of serotonin [1] is “prevent completely”. Turning to `CN1CCN2c3ccccc3Cc3ccccc3C2C1` (stereo not drawn) [mianserin], the “prevention” value in the experiment on effects of serotonin [1] was “prevent completely”. In the case of `CN(C)CCCSc1ccccc1NC(=O)/C=C/c1ccccc1` [cinanserin], the “prevention” value with effects of serotonin [1] is reported as “prevent completely”. Turning to `CN1CCC(=C2c3ccccc3C=Cc3ccccc32)CC1` [cyproheptadine], the “prevention” value with effects of serotonin [1] is given as “prevent completely”. Turning to `CC[C@@H](CO)NC(=O)[C@@H]1C=C2c3cccc4c3c(cn4C)C[C@H]2N(C)C1` [methysergide], in the experiment on effects of serotonin [1], the “prevention” value is reported as “prevent completely”. In the case of `c1cnc(OCCN2CCC(Cc3nc4ccccc4n3Cc3ccco3)CC2)nc1` [Compound 392, 1-(2-furanylmethyl)-2-[[1-[2-(2-pyrimidinyloxy)ethyl]-4-piperidinyl]methyl]-1H-benzimidazole], the ED50 was found to be 0.63 mg/kg in the experiment on effects of serotonin [2] (setting [4]) and 0.02 mg/kg in experiment [3]. The matching figures for `COc1ccc(CCN2CCC(Cc3nc4ccc(O)cc4n3Cc3ccc(F)cc3)CC2)cc1` [Compound 276]: 0.31 mg/kg and 0.04 mg/kg. Turning to `O=c1c2ccccc2[nH]c(=S)n1CCN1CCC(Cc2nc3ccccc3n2Cc2ccco2)CC1` [Compound 461, 3-[2-[4-[[1-(2-furanylmethyl)-1H-benzimidazol-2-yl]methyl]-1-piperidinyl]ethyl]-2,3-dihydro-2-thioxo-4(1H)-quinazolinone], the ED50 (in the experiment on effects of serotonin [2]; in experiment [3]) was 0.08 mg/kg throughout.

For `Fc1ccc(Cn2c(CC3CCN(CCc4ccccn4)CC3)nc3cccnc32)cc1` [Compound 101], the ED50 was determined as 0.31 mg/kg in the experiment on effects of serotonin [2] (setting [4]) and 0.02 mg/kg in experiment [3].

With `CNC(=S)NCCN1CCC(Cc2nc3ccccc3n2Cc2ccc(F)cc2)CC1` [Compound 428, N-[2-[4-[[1-[(4-fluorophenyl)methyl]-1H-benzimidazol-2-yl]methyl]-1-piperidinyl]ethyl]-N'-methylthiourea], the ED50 came to 0.01 mg/kg in the experiment with effects of serotonin [2] (setting [4]) and 0.04 mg/kg in experiment [3]. `Cc1nc2n(c(=O)c1CCN1CCC(Cc3nc4ccccc4n3Cc3ccco3)CC1)CCCC2` [Compound 226]: the values for the ED50 (with effects of serotonin [2]; in experiment [3]) were 0.04 mg/kg and 0.08 mg/kg, respectively. Turning to `Cc1nc2ccccn2c(=O)c1CCN1CCC(Cc2nc3ncccc3n2Cc2ccc(F)cc2)CC1` [Compound 272], the ED50 is 0.63 mg/kg in the experiment on effects of serotonin [2] (setting [4]) and 0.08 mg/kg in experiment [3].

Regarding `CCOC(=O)c1csc(NCCN2CCC(Cc3nc4ccccc4n3Cc3ccc(F)cc3)CC2)n1` [Compound 455, ethyl 2-[(2-[4-[(1-[(4-fluorophenyl)methyl]-1H-benzimidazol-2-yl]methyl]-1-piperidinyl]ethyl]amino]-4-thiazolecarboxylate], the ED50 turned out to be 0.63 mg/kg in the experiment on effects of serotonin [2] (setting [4]) and 0.04 mg/kg in experiment [3]. The matching figures for `Fc1ccc(Cn2c(CC3CCN(CCN4CCOCC4)CC3)nc3cccnc32)cc1` [Compound 124]: 0.31 mg/kg and 0.04 mg/kg.

Regarding `CN1CCC(=C2c3ccccc3CCc3sccc32)CC1` [pizotifen], the “prevention” value in the experiment with effects of serotonin [1] was “prevent completely”. On to `Fc1ccc(Cn2c(CC3CCN(Cc4cn5ccccc5n4)CC3)nc3ccccc32)cc1` [Compound 184], for which the results for the ED50 (in the experiment with effects of serotonin [2] (setting [4]); in experiment [3]) were 0.63 mg/kg and 0.02 mg/kg, respectively.

As to `CCCC(=O)c1ccc(OC)c(C(=O)NCCN2CCC(Cc3nc4ccccc4n3Cc3ccc(F)cc3)CC2)c1` [Compound 441, N-[2-[4-[[1-[(4-fluorophenyl)methyl]-1H-benzimidazol-2-yl]methyl]-1-piperidinyl]ethyl]-2-methoxy-5-(1-oxobutyl)benzamide], the ED50 with effects of serotonin [2] (setting [4]) amounted to 0.16 mg/kg; in experiment [3] it was 0.08 mg/kg. In the case of `COc1ccc(CCN2CCC(Cc3nc4cccnc4n3Cc3cccs3)CC2)cc1` [Compound 238], the ED50 in the experiment with effects of serotonin [2] (setting [4]) turned out to be 0.63 mg/kg; in experiment [3], 0.08 mg/kg.

In the case of `Cc1cc(Cl)nc(NCCN2CCC(Cc3nc4ccccc4n3Cc3ccc(F)cc3)CC2)n1` [Compound 382, 4-chloro-N-[2-[4-[[1-[(4-fluorophenyl)methyl]-1H-benzimidazol-2-yl]methyl]-1-piperidinyl]ethyl]-6-methyl-2-pyrimidinamine], the ED50 is 0.63 mg/kg in the experiment on effects of serotonin [2] (setting [4]) and 0.08 mg/kg in experiment [3]. The matching figures for `O=c1[nH]c2ccccc2c(=O)n1CCN1CCC(Cc2nc3ccccc3n2Cc2ccc(F)cc2)CC1` [Compound 209]: 0.63 mg/kg and 0.08 mg/kg. The matching figures for `Nc1ccccc1C(=O)NCCN1CCC(Cc2nc3ccccc3n2Cc2ccc(F)cc2)CC1` [Compound 468, 2-amino-N-[2-[4-[[1-[(4-fluorophenyl)methyl]-1H-benzimidazol-2-yl]methyl]-1-piperidinyl]ethyl]benzamide]: 0.63 mg/kg and 0.02 mg/kg. On to `S=C=NCCN1CCC(Cc2nc3ccccc3n2Cc2ccco2)CC1` [Compound 399], for which the figures for the ED50 (in the experiment on effects of serotonin [2]; in experiment [3]) were 0.04 mg/kg and 0.02 mg/kg, respectively. Take `O=c1[nH]c2ccccc2c(=O)n1CCN1CCC(Cc2nc3ccccc3n2Cc2cccs2)CC1` [Compound 186]: the ED50 with effects of serotonin [2] (setting [4]) stood at 0.31 mg/kg; in experiment [3], 0.04 mg/kg.

As to `Cc1nc2n(c(=O)c1CCN1CCC(Cc3nc4cccnc4n3Cc3ccco3)CC1)CCS2` [Compound 168], the values for the ED50 (in the experiment on effects of serotonin [2] (setting [4]); in experiment [3]) were 0.63 mg/kg and 0.04 mg/kg, respectively. On the same counts, the results for `O=C(NCCN1CCC(Cc2nc3cccnc3n2Cc2ccc(F)cc2)CC1)c1ccoc1` [Compound 432] are 0.31 mg/kg and 0.04 mg/kg.

On to `NC(=O)C1(N2CCCCC2)CCN(CCCC(=O)c2ccc(F)cc2)CC1` [pipamperone], for which the “prevention” value with effects of serotonin [1] is reported as “prevent completely”.

As to `CN(C)C(=O)NCCN1CCC(Cc2nc3cccnc3n2Cc2ccc(F)cc2)CC1` [Compound 448, N'-[2-[4-[[3-[(4-fluorophenyl)methyl]-3H-imidazo[4,5-b]pyridin-2-yl]methyl]-1-piperidinyl]ethyl]-N,N-dimethylurea], the ED50 in the experiment on effects of serotonin [2] (setting [4]) turned out to be 0.16 mg/kg; in experiment [3], 0.08 mg/kg. The matching figures for `Cc1nc2scc(C)n2c(=O)c1CCN1CCC(Cc2nc3cccnc3n2Cc2ccco2)CC1` [Compound 151, 6-[2-[4-[[3-(2-furanylmethyl)-3H-imidazo[4,5-b]pyridin-2-yl]methyl]-1-piperidinyl]ethyl]-3,7-dimethyl-5H-thiazolo[3,2-a]pyrimidin-5-one]: 0.16 mg/kg and 0.02 mg/kg.

For `Fc1ccc(Cn2c(CC3CCN(Cc4ccccc4)CC3)nc3ccccc32)cc1` [Compound 34, 1-[(4-fluorophenyl)methyl]-2-[[1-(phenylmethyl)-4-piperidinyl]methyl]-1H-benzimidazole], the ED50 stood at 0.63 mg/kg in the experiment on effects of serotonin [2] (setting [4]) and 0.04 mg/kg in experiment [3].

Regarding `COc1ccc(CCN2CCC(Cc3nc4cccnc4n3Cc3ccccc3)CC2)cc1` [Compound 198], the ED50 in the experiment on effects of serotonin [2] worked out at 0.08 mg/kg; in experiment [3], 0.04 mg/kg. With `CN1C[C@H](CNC(=O)OCc2ccccc2)C[C@@H]2c3cccc4c3c(cn4C)C[C@H]21` [metergoline], in the experiment with effects of serotonin [1], the “prevention” value is listed as “prevent completely”.

Values taken from patent US4839374A, “4-((Bicyclic heterocyclyl)-methyl and -hetero)-piperidines” (Janssen Pharmaceutica, N.V., priority 1987, dated 1989).
